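All cell lines were grown in 96-well plates and treated with compound for 48 hours. Definition used: TGI = concentration required for complete inhibition of growth.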
Assays:
Experiment in all cases: NCI tumour cell line growth inhibition, 48 h
MDA-MB-435 = tested on: MDA-MB-435
HCT-15 colon = tested on: HCT-15 colon
K-562 leukemia = tested on: K-562 leukemia
SF-539 CNS = tested on: SF-539 CNS
DU-145 prostate = tested on: DU-145 prostate
OVCAR-8 ovarian = tested on: OVCAR-8 ovarian
786-0 renal = tested on: 786-0 renal
SF-268 CNS = tested on: SF-268 CNS
OVCAR-5 ovarian = tested on: OVCAR-5 ovarian
LOX IMVI melanoma = tested on: LOX IMVI melanoma
UACC-62 melanoma = tested on: UACC-62 melanoma
HT29 colon = tested on: HT29 colon
SK-MEL-28 melanoma = tested on: SK-MEL-28 melanoma
KM12 colon = tested on: KM12 colon
CCRF-CEM leukemia = tested on: CCRF-CEM leukemia
NCI/ADR-RES ovarian = tested on: NCI/ADR-RES ovarian
SN12C renal = tested on: SN12C renal
MDA-N = tested on: MDA-N
SW-620 colon = tested on: SW-620 colon
SK-OV-3 ovarian = tested on: SK-OV-3 ovarian
EKVX NSCLC = tested on: EKVX NSCLC
TK-10 renal = tested on: TK-10 renal
U251 CNS = tested on: U251 CNS
NCI-H23 lung = tested on: NCI-H23 lung
NCI-H460 lung = tested on: NCI-H460 lung
MDA-MB-231 breast = tested on: MDA-MB-231 breast
UACC-257 melanoma = tested on: UACC-257 melanoma
SK-MEL-5 melanoma = tested on: SK-MEL-5 melanoma
MOLT-4 leukemia = tested on: MOLT-4 leukemia
HOP-92 NSCLC = tested on: HOP-92 NSCLC
IGROV1 ovarian = tested on: IGROV1 ovarian
HCT-116 colon = tested on: HCT-116 colon
ACHN renal = tested on: ACHN renal
NCI-H226 lung = tested on: NCI-H226 lung
SR leukemia = tested on: SR leukemia
HL-60(TB) leukemia = tested on: HL-60(TB) leukemia
HCC-2998 colon = tested on: HCC-2998 colon
RPMI-8226 leukemia = tested on: RPMI-8226 leukemia
A549 NSCLC = tested on: A549 NSCLC
NCI-H522 lung = tested on: NCI-H522 lung
M14 melanoma = tested on: M14 melanoma
MCF7 breast = tested on: MCF7 breast
SF-295 CNS = tested on: SF-295 CNS
RXF 393 renal = tested on: RXF 393 renal
OVCAR-3 ovarian = tested on: OVCAR-3 ovarian
OVCAR-4 ovarian = tested on: OVCAR-4 ovarian
SNB-19 CNS = tested on: SNB-19 CNS
CAKI-1 renal = tested on: CAKI-1 renal
COLO 205 colon = tested on: COLO 205 colon
UO-31 renal = tested on: UO-31 renal
HS 578T breast = tested on: HS 578T breast
MALME-3M melanoma = tested on: MALME-3M melanoma
SK-MEL-2 melanoma = tested on: SK-MEL-2 melanoma
A498 renal = tested on: A498 renal
PC-3 prostate = tested on: PC-3 prostate
BT-549 breast = tested on: BT-549 breast
HOP-62 NSCLC = tested on: HOP-62 NSCLC
T-47D breast = tested on: T-47D breast
SNB-75 CNS = tested on: SNB-75 CNS

## O=C(c1ccccc1)C(C(=O)c1ccccc1)c1nc2ccccc2sc1=O
MDA-MB-435
  TGI: […]
HCT-15 colon
  TGI: […]
K-562 leukemia
  TGI: […]
SF-539 CNS
  TGI: […]
DU-145 prostate
  TGI: […]
OVCAR-8 ovarian
  TGI: […]
786-0 renal
  TGI: […]
SF-268 CNS
  TGI: […]
OVCAR-5 ovarian
  TGI: […]
LOX IMVI melanoma
  TGI: […]
UACC-62 melanoma
  TGI: 24 µM
HT29 colon
  TGI: […]
SK-MEL-28 melanoma
  TGI: […]
KM12 colon
  TGI: […]
CCRF-CEM leukemia
  TGI: […]
NCI/ADR-RES ovarian
  TGI: […]
SN12C renal
  TGI: […]
MDA-N
  TGI: […]
SW-620 colon
  TGI: […]
SK-OV-3 ovarian
  TGI: […]
EKVX NSCLC
  TGI: […]
TK-10 renal
  TGI: […]
U251 CNS
  TGI: […]
NCI-H23 lung
  TGI: […]
NCI-H460 lung
  TGI: […]
MDA-MB-231 breast
  TGI: […]
UACC-257 melanoma
  TGI: […]
SK-MEL-5 melanoma
  TGI: […]
MOLT-4 leukemia
  TGI: […]
HOP-92 NSCLC
  TGI: 13 µM
IGROV1 ovarian
  TGI: […]
HCT-116 colon
  TGI: […]
ACHN renal
  TGI: […]
NCI-H226 lung
  TGI: 23 µM
SR leukemia
  TGI: […]
HL-60(TB) leukemia
  TGI: […]
HCC-2998 colon
  TGI: […]
RPMI-8226 leukemia
  TGI: […]
A549 NSCLC
  TGI: […]
NCI-H522 lung
  TGI: […]
M14 melanoma
  TGI: […]
MCF7 breast
  TGI: […]
SF-295 CNS
  TGI: […]
RXF 393 renal
  TGI: […]
OVCAR-3 ovarian
  TGI: […]
OVCAR-4 ovarian
  TGI: […]
SNB-19 CNS
  TGI: […]
CAKI-1 renal
  TGI: […]
COLO 205 colon
  TGI: […]
UO-31 renal
  TGI: […]
HS 578T breast
  TGI: […]
MALME-3M melanoma
  TGI: […]
SK-MEL-2 melanoma
  TGI: […]
A498 renal
  TGI: […]
PC-3 prostate
  TGI: […]
BT-549 breast
  TGI: […]
HOP-62 NSCLC
  TGI: […]
T-47D breast
  TGI: […]

## COc1cc2oc3c(c(=O)c2c(O)c1/C=C/C(C)C)CCC(C)(C)Oc1cc(O)ccc1-3
MDA-MB-435
  TGI: 39.8 µM
HCT-15 colon
  TGI: 21.8 µM
K-562 leukemia
  TGI: 13.6 µM
SF-539 CNS
  TGI: 26.2 µM
DU-145 prostate
  TGI: 97.9 µM
OVCAR-8 ovarian
  TGI: 31.4 µM
786-0 renal
  TGI: 47.1 µM
SF-268 CNS
  TGI: 32.2 µM
OVCAR-5 ovarian
  TGI: 30.7 µM
LOX IMVI melanoma
  TGI: > 100 µM
UACC-62 melanoma
  TGI: 30.3 µM
HT29 colon
  TGI: 19.2 µM
SK-MEL-28 melanoma
  TGI: 40.2 µM
KM12 colon
  TGI: 21.8 µM
CCRF-CEM leukemia
  TGI: 57.6 µM
NCI/ADR-RES ovarian
  TGI: 39.3 µM
SN12C renal
  TGI: 27.4 µM
MDA-N
  TGI: 25.6 µM
SW-620 colon
  TGI: 51.8 µM
SK-OV-3 ovarian
  TGI: 34.8 µM
EKVX NSCLC
  TGI: 47.6 µM
TK-10 renal
  TGI: 28.7 µM
U251 CNS
  TGI: 66.1 µM
NCI-H23 lung
  TGI: 30.1 µM
NCI-H460 lung
  TGI: 21.3 µM
MDA-MB-231 breast
  TGI: 32.4 µM
UACC-257 melanoma
  TGI: 29.2 µM
SK-MEL-5 melanoma
  TGI: 39.9 µM
MOLT-4 leukemia
  TGI: 35 µM
HOP-92 NSCLC
  TGI: 34.3 µM
IGROV1 ovarian
  TGI: 40.6 µM
HCT-116 colon
  TGI: 65.9 µM
ACHN renal
  TGI: 27.1 µM
SR leukemia
  TGI: 20 µM
HL-60(TB) leukemia
  TGI: 45.4 µM
HCC-2998 colon
  TGI: 27.5 µM
RPMI-8226 leukemia
  TGI: 45.5 µM
A549 NSCLC
  TGI: 27.1 µM
NCI-H522 lung
  TGI: 38.1 µM
M14 melanoma
  TGI: 23 µM
MCF7 breast
  TGI: 26.7 µM
SF-295 CNS
  TGI: 27.7 µM
RXF 393 renal
  TGI: 24.4 µM
OVCAR-3 ovarian
  TGI: 29 µM
OVCAR-4 ovarian
  TGI: 28.6 µM
SNB-19 CNS
  TGI: 30.7 µM
CAKI-1 renal
  TGI: 30.6 µM
COLO 205 colon
  TGI: 66.9 µM
UO-31 renal
  TGI: 25.8 µM
HS 578T breast
  TGI: 31.2 µM
MALME-3M melanoma
  TGI: 41.4 µM
SNB-75 CNS
  TGI: 33.1 µM
SK-MEL-2 melanoma
  TGI: 30.2 µM
A498 renal
  TGI: 42.6 µM
PC-3 prostate
  TGI: 28.4 µM
BT-549 breast
  TGI: 31.6 µM
HOP-62 NSCLC
  TGI: 28.9 µM
T-47D breast
  TGI: > 100 µM

## CCOC(=O)c1nc2cc(C(F)(F)F)ccc2nc1Nc1cc(OC)c(OC)c(OC)c1
MDA-MB-435
  TGI: > 100 µM
HCT-15 colon
  TGI: > 100 µM
K-562 leukemia
  TGI: > 100 µM
SF-539 CNS
  TGI: > 100 µM
DU-145 prostate
  TGI: > 100 µM
OVCAR-8 ovarian
  TGI: > 100 µM
786-0 renal
  TGI: > 100 µM
SF-268 CNS
  TGI: > 100 µM
OVCAR-5 ovarian
  TGI: > 100 µM
LOX IMVI melanoma
  TGI: > 100 µM
UACC-62 melanoma
  TGI: > 100 µM
HT29 colon
  TGI: > 100 µM
SK-MEL-28 melanoma
  TGI: > 100 µM
KM12 colon
  TGI: > 100 µM
CCRF-CEM leukemia
  TGI: > 100 µM
NCI/ADR-RES ovarian
  TGI: > 100 µM
SN12C renal
  TGI: > 100 µM
MDA-N
  TGI: > 100 µM
SW-620 colon
  TGI: > 100 µM
SK-OV-3 ovarian
  TGI: > 100 µM
EKVX NSCLC
  TGI: > 100 µM
TK-10 renal
  TGI: > 100 µM
U251 CNS
  TGI: > 100 µM
NCI-H23 lung
  TGI: > 100 µM
NCI-H460 lung
  TGI: > 100 µM
MDA-MB-231 breast
  TGI: > 100 µM
UACC-257 melanoma
  TGI: > 100 µM
SK-MEL-5 melanoma
  TGI: > 100 µM
MOLT-4 leukemia
  TGI: > 100 µM
HOP-92 NSCLC
  TGI: > 100 µM
IGROV1 ovarian
  TGI: > 100 µM
HCT-116 colon
  TGI: > 100 µM
ACHN renal
  TGI: > 100 µM
NCI-H226 lung
  TGI: > 100 µM
SR leukemia
  TGI: > 100 µM
HL-60(TB) leukemia
  TGI: > 100 µM
HCC-2998 colon
  TGI: > 100 µM
RPMI-8226 leukemia
  TGI: > 100 µM
A549 NSCLC
  TGI: > 100 µM
NCI-H522 lung
  TGI: > 100 µM
M14 melanoma
  TGI: > 100 µM
MCF7 breast
  TGI: > 100 µM
SF-295 CNS
  TGI: > 100 µM
RXF 393 renal
  TGI: > 100 µM
OVCAR-3 ovarian
  TGI: > 100 µM
SNB-19 CNS
  TGI: > 100 µM
CAKI-1 renal
  TGI: > 100 µM
COLO 205 colon
  TGI: > 100 µM
UO-31 renal
  TGI: > 100 µM
HS 578T breast
  TGI: > 100 µM
MALME-3M melanoma
  TGI: > 100 µM
SNB-75 CNS
  TGI: > 100 µM
A498 renal
  TGI: > 100 µM
PC-3 prostate
  TGI: > 100 µM
BT-549 breast
  TGI: > 100 µM
HOP-62 NSCLC
  TGI: > 100 µM
T-47D breast
  TGI: > 100 µM
